{
  "source": "patent US20140221499A1",
  "about": "“NOVEL RODENT CONTROL AGENTS AND USES THEREOF” (priority 2011, published 2014)",
  "format_in_all_cases": "cell-based",
  "key": {"mTAAR7f-SS": {"biological_target": "T1, mTAAR7f-SS (Mus musculus, UniProt Q5QD08, C133S/Y132S)", "T1 construct": "Full Taar coding regions were cloned into pcDNA3.1-(Invitrogen); Rho tag (first 20 aa of bovine rhodopsin + linker); expressed in transfected cells; host or cells: HEK293", "T1 sequence (Q5QD08 1-358 Y132S/C133S)": "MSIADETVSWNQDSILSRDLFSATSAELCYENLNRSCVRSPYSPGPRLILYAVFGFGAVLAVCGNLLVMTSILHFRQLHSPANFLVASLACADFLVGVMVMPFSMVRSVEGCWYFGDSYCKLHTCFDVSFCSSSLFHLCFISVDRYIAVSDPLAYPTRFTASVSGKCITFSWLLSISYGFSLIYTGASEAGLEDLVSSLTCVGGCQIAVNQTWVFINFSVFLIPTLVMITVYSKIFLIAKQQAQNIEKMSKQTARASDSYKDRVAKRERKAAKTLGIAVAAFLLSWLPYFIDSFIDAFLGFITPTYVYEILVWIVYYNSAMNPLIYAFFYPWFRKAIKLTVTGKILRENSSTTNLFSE", "test": "Reporter gene assay on mutant receptor mTAAR7f-SS", "settings": "mutant vs mTAAR7f", "description": "To test this, we created mutant receptors in which sequences of mTAAR7e were swapped into mTAAR7f and vice versa. Position 132^3.37 is a tyrosine in mTAAR7f and the other three receptors that detect 10, but a serine in mTAAR7e and a cysteine in rTAAR7h, the two receptors that detect 6. Furthermore, position 133^3.38 is a cysteine in mTAAR7f but a serine in mTAAR7e and rTAAR7h. We altered positions 132^3.37 and 133^3.38 by mutation of mTAAR7e (‘mTAAR7e-YC’) and mTAAR7f (‘mTAAR7f-SS’) and examined odor responses of these mutants using the cellular reporter gene assay (FIG. 9).\nTAAR functional assays. Full Taar coding regions were cloned into pcDNA3.1-(Invitrogen) with or without a 5′ DNA extension of 69 bp encoding the first 20 amino acids of bovine rhodopsin followed by a cloning linker ([…]). Point mutations were introduced in mTAAR7e and mTAAR7f by overlap extension PCR. Functional assays were performed as described (40, 42). Fluorescence was measured on an EnVision plate reader (Perkin Elmer) and SEAP activity graphed as relative fluorescence of a phosphatase substrate."}, "mTAAR4": {"biological_target": "T2, mTAAR4 (Mus musculus, UniProt Q5QD15)", "T2 construct": "Full Taar coding regions were cloned into pcDNA3.1; expressed in transfected cells; host or cells: HEK293", "T2 sequence (Q5QD15 with tags, fused parts or gaps)": "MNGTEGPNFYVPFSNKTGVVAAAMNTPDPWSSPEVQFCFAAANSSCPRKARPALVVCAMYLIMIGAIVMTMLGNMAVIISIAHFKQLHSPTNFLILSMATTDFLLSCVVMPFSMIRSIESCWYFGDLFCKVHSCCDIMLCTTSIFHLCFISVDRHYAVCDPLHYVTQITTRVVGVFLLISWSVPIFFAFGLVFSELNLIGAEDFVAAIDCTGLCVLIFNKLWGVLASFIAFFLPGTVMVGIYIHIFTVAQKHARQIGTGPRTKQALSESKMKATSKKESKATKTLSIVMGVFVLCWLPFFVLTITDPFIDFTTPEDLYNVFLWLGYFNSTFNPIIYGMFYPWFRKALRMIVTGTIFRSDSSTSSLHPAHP", "test": "CRE-SEAP reporter gene assay in HEK293 cells transfected with mTAAR4 (fusion with N-terminal sequence of bovine rhodopsin, 'Rho tag')", "settings": "FIG. 11B, mTAAR4 required a 'Rho tag' (N-terminal bovine rhodopsin sequence, first 20 amino acids), EC50 ± s.e.m., 4-parameter Hill equation", "protocol": "(A) HEK293 cells were transfected with TAAR4 and reporter plasmids, incubated with urine extracts of species indicated, and assayed for reporter activity (triplicates±SD). […] TAAR4 was expressed as a fusion protein with an N-terminal sequence of bovine rhodopsin, which provided enhanced signal (24). […] Urine (diluted 300- or 100-fold) or urine extracts (diluted 30-, 10-, or 3-fold) of species indicated were tested (triplicates±s.d.).\nFIG. 11 illustrates the dose-dependent responses of TAARs to amines. […] EC50 values (±s.e.m, bottom right) were calculated using SigmaPlot (Systat Software) and a 4-parameter Hill equation.\nFull Taar coding regions were cloned into pcDNA3.1-(Invitrogen) with or without a 5′ DNA extension of 69 bp encoding the first 20 amino acids of bovine rhodopsin followed by a cloning linker ([sequence]). […] Fluorescence was measured on an EnVision plate reader (Perkin Elmer) and SEAP activity graphed as relative fluorescence of a phosphatase substrate.\nHEK293 cells were co-transfected with TAAR expression plasmids and a cAMPdependent reporter gene encoding secreted alkaline phosphatase (CRE-SEAP). Transfected cells were incubated with urine extracts from different mammalian species, and phosphatase activity was quantified with a fluorescent substrate as a reporter for TAAR activation."}, "[1]": {"system": "mouse olfactory sensory neurons", "test": "Confocal calcium imaging of olfactory sensory neurons in tissue slices", "description": "The mammalian olfactory system encodes odor identity using combinations of olfactory receptors (11). […] Here, we used a confocal imaging strategy to record cytosolic calcium transients of single sensory neurons in real time. Viability of analyzed neurons was determined after odor exposures by KCl-induced depolarization.\nConfocal calcium imaging of olfactory sensory neurons in tissue slices. Recordings were performed as described (Spehr M, et al. (2006) Essential role of the main olfactory system in social recognition of major histocompatibility complex peptide ligands. J Neurosci 26(7):1961-1970) with the following modifications. For calcium sensitive dye loading, slices of olfactory epithelium were incubated (30 min, 4° C.) in HEPES solution (in mM: 145 NaCl, 5 KCl, 1 CaCl2, 1 MgCl2, 10 HEPES; pH=7.3) containing Fluo-4/AM (2 μM; Molecular Probes). Slices were transferred to a recording chamber (Slice Mini Chamber, Luigs & Neumann, Ratingen, Germany) and visualized using a Leica DM6000CFS confocal fixed stage upright microscope (Leica Microsystems, Mannheim, Germany) equipped with an apochromatic water immersion objective (HC X APO L20x/1.0 W) and infrared-optimized differential interference contrast (DIC) optics. Slices were anchored via stainless steel wires with 0.1 mm lycra threads and continuously superfused with HEPES-buffered solution. Changes in cytosolic calcium were monitored over time at 1.0 Hz frame rate. Stimulus application as well as solution exchange during inter-stimulus intervals was achieved by a custom-made, pressure-driven focal application device consisting of a software-controlled valve bank connected to a 7-in-1 ‘perfusion pencil’. Rhodamine application controlled for uniform flow and even stimulus application throughout the epithelial sensory surface. Offline analysis of time-lapse experiments was performed using LAS-AF software (Leica). All cells in a given field of view were marked as individual regions of interest (ROIs), and the relative fluorescence intensity for each ROI was calculated and processed as a function of time."}},
  "data": [
    {"smiles": "CN(C)C1CCCCC1", "note": "[ligand 10, N,N-dimethylcyclohexylamine]", "values": [
      {"measurement": "reduced affinity of mTAAR7f-SS", "setting": "mTAAR7f-SS", "result": "~100", "unit": "fold"}
    ]},
    {"smiles": "NCCc1ccccc1", "note": "[2-phenylethylamine]", "values": [
      {"measurement": "EC50", "setting": "mTAAR4", "result": "7.5 ± 3.7", "unit": "µM"},
      {"measurement": "activation of olfactory sensory neurons", "setting": "[1]; dorsal and ventral olfactory epithelium", "result": "activated a subset of KCl-responsive olfactory sensory neurons"},
      {"measurement": "2-phenylethylamine-responsive neurons activated by all four test stimuli", "setting": "[1]; dorsal olfactory epithelium", "result": "30/52"},
      {"measurement": "2-phenylethylamine-responsive neurons distinguishing lion and giraffe urine and not responding to benzylamine", "setting": "[1]; of 2-phenylethylamine-responsive neurons (13/52)", "result": 25, "unit": "%"},
      {"measurement": "2-phenylethylamine-responsive neurons distinguishing lion and giraffe urine and not responding to benzylamine", "setting": "[1]; of all dorsal KCl-responsive neurons (13/1268)", "result": "~1", "unit": "%"}
    ]}
  ]
}
